Laboratory results reported in US8809283B2, “Proteasome inhibitors and uses thereof” (Natuderm, LLC, priority 2005, dated 2014).
Read-outs that look alike come from different tables or passages of the source. One block for each molecule: values may come before it.

Columns and labels:
SVR cells = assay: SVR cell proliferation assay; format: cell-based; settings: 10 mg/ml, 72 hours exposure, Coulter Counter
Protocol: The filtered aqueous extract was lyophilized to a dry powder, which was dissolved in distilled water and analyzed by HPLC, and 5 fractions were collected. HPLC fractions were lyophilized. Each fraction was reconstituted into 10 mg/ml solutions, and the ability to inhibit proliferation of SVR cells was tested.
SVR cells (1×10^4) were plated for 24 hours in a 24-well plate. The media was then changed to DMEM containing purified extract at a concentration of 10 mg/ml. Cells were exposed to drug for 72 hours and were counted with a Coulter Counter (Coulter, Hialeah, Fla.) according to the method of Lamontagne et al (LaMontagne et al., (2000) Am. J. Pathol. 157, 1937-1945). […] In order to determine the component of mate tea responsible, the aqueous extract was fractionated by HPLC, and the ability of the fractions to inhibit SVR cell proliferation was assessed. […] The structures of T-2, T-5, and T-6 were elucidated by proton NMR and mass spectroscopy (FIG. 1). […] The NMR spectra of the compounds are shown below.

[1] = target: purified prokaryotic 20S proteasome (Methanosarcina thermophila, UniProt Q9P992); assay: Chymotrypsin-like activity of purified 20S proteasome (fluorogenic substrate Suc-Leu-Leu-Val-Tyr-AMC); format: biochemical; settings: for inhibition at 100 µM: read-out: inhibition of proteasomal chymotrypsin-like activity
Protocol: This example describes the how to analyze the inhibitory effect of isolated fractions of mate tea in vitro, using purified 20S proteasome. The chymotrypsin-like activity of purified 20S proteasome was measured as previously described (Nam et al., (2001) J. Biol. Chem. 276, 13322-13330). Briefly, purified prokaryotic 20S proteasome (0.5 μg) was incubated with 20 μM fluorogenic peptide substrate, Suc-Leu-Leu-Val-Tyr-AMC for 30 min at 37° C. in 100 μl of assay buffer (50 mM Tris-HCl, pH 7.5), with or without a mate tea fraction at indicated concentrations. After incubation, production of hydrolyzed 7-amido-4-methyl-coumarin (AMC) groups was measured using a multi-well plate VersaFluor™ Fluorometer with an excitation filter of 380 nm and an emission filter of 460 nm (Bio-Rad).
The quinic acid esters resemble the proteasome inhibitor (−)-epigallocatechin gallate [(−)-EGCG] in that they contain hydroxylated aromatic carboxylic acids esterified to a polyhydroxylated aliphatic ring (FIG. 3). Based upon this similarity, and the previous finding that epigallocatechin gallate is an inhibitor of proteasomes (Ren et al., (2000) Oncogene 19, 1419-1427; Nam et al., (2001) J. Biol. Chem. 276, 13322-13330)), the ability of fractions T-2, T-5, and T-6 to inhibit proteasome function was assessed. To determine the ability of quinic acid esters to inhibit proteasome activity, a fluorescent substrate activity assay was performed with purified 20S proteasome. Epigallocatechin gallate (EGCG, Sigma Chemical Company, St Louis, Mo.) was used as a positive control for proteasome inhibition. To ensure complete inhibition of the proteasome, 100 μM EGCG was used. The compound 3,5-dicaffeoylquinic acid (3,5-DCQ) was tested against proteasome activity in three different concentrations: 20, 100, and 200 μg/ml, which correspond to 37, 183, and 366 μM respectively (FIG. 4).

[2] = target: T1, 26S proteasome in Jurkat T cell extracts (Homo sapiens, UniProt P28074); assay: Proteasome chymotrypsin-like activity in Jurkat T cell extracts; format: biochemical; settings: 60 min at 37° C.
T1 construct: Whole cell extracts (20 μg) of Jurkat T cells; endogenous in cells; host or cells: Jurkat T cells (whole cell extract)
T1 sequence (P28074 60-263): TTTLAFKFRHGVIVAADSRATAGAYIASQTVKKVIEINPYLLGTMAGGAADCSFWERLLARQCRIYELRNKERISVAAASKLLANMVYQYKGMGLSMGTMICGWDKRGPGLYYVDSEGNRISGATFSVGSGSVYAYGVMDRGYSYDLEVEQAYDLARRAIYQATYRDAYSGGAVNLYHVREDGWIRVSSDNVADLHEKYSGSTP
Protocol: This example describes the how to analyze the inhibitory effect of isolated fractions of mate tea in vivo, using cell extracts of the Jurkat cancer cell line. Whole cell extracts (20 μg) of Jurkat T cells were incubated for 60 min at 37° C. with 20 μM of fluorogenic peptide substrate Suc-Leu-Leu-Val-Tyr-AMC in […] of the assay buffer, with or without a mate tea fraction at indicated concentrations. The hydrolyzed AMCs were quantified as described above.
The abilities of 3,5-DCQ and neochlorogenic acid to inhibit the 26S proteasome activity in Jurkat cell extracts was tested.

Jurkat T cells = assay: Cell cycle analysis of Jurkat T cells by flow cytometry (propidium iodide); format: cell-based; settings: for arrest of Jurkat cells in G2/M phase: 2 μg/ml for 24 h; for increase of G2/M population: 20 μg/ml for 24 h
Protocol: To investigate the inhibitory effect of the fractions on cell cycle, Jurkat cells exposed to each fraction were analyzed by flow cytometry. Cell cycle analysis based on DNA content was performed as described previously (See Nam et al., 2001). The cell cycle distribution is shown as the percentage of cells containing G1, S, G2, and M DNA judged by propidium iodide staining.
The proteasome-inhibitory potencies of 3,5-DCQ and neochlorogenic acid were identified as being associated with growth-inhibitory activity in vivo, based on treating Jurkat T cells with each compound at a concentration of 2 or 20 μg/ml for 24 h. After treatment, the cells were harvested and assayed by flow cytometry. […] In contrast, neochlorogenic acid at the same concentrations had no effects.

[3] = system: inositol-1,4,5-triphosphate 3 kinase (GgIP3K-A); assay: Inositol-1,4,5-triphosphate 3 kinase activity assay (Mayr et al.); format: biochemical; settings: FIG. 6
Protocol: An assay was performed as described in Mayr et al., (2005) J. Biol. Chem. 280: 13229-13240, incorporated herein by reference. […] Inhibition of the kinase activity may be important in HIV.

[4] = at 100 μM, purified 20S proteasome
[5] = at 20 μg/ml (37 μM 3,5-DCQ; 56 μM neochlorogenic acid)
[6] = at 100 μg/ml (183 μM 3,5-DCQ; 282 μM neochlorogenic acid)

Sequence of purified prokaryotic 20S proteasome (Q9P992 10-210): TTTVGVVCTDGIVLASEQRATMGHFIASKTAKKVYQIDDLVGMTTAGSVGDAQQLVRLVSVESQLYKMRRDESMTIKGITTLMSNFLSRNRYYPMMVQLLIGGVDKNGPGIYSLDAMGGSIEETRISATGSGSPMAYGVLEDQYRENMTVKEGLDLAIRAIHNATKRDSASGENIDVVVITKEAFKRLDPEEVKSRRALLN
Sequence of purified prokaryotic 20S proteasome (Q59565 whole entry, further chain): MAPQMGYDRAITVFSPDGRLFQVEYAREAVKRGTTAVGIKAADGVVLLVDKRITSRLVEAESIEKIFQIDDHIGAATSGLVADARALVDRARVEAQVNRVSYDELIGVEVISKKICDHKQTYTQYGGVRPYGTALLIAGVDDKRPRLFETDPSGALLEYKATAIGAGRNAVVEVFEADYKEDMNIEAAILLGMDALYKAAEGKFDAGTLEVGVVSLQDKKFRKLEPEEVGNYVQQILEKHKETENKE

inhibition of proteasomal chymotrypsin-like activity [1, 4]: 40%
SMILES: O=C(/C=C/c1ccc(O)c(O)c1)O[C@@H]1[C@H](O)C[C@@](O)(C(=O)O)C[C@H]1OC(=O)/C=C/c1ccc(O)c(O)c1 (stereo in doubt) [T-6, 3,4-Dicaffeoylquinic acid]
inhibition of SVR cell proliferation (SVR cells): most potent inhibitory effects

inhibition at 100 µM [1, 4]: 60%
inhibition at 20 µg/mL [2, 5]: ~50%
inhibition at 100 µg/mL [2, 6]: ~85%
SMILES: O=C(C=Cc1ccc(O)c(O)c1)OC1CC(O)(C(=O)O)CC(OC(=O)C=Cc2ccc(O)c(O)c2)C1O (stereo not shown) [3,5-DCQ, 3,5-Dicaffeoylquinic acid]
inhibition of SVR cell proliferation (SVR cells): most potent inhibitory effects
arrest of Jurkat cells in G2/M phase (Jurkat T cells): very slight arrest
increase of G2/M population (Jurkat T cells): ~10%

activity against proteasomes (qualitative) ([1]; used as a control, chymotrypsin-like proteasome activity (FIG. 5)): activity against proteasomes
inhibition of IP-3 kinase activity (qualitative) [3]: inhibit
SMILES: CC(C)(C)c1cc(CCC(=O)OCC(COC(=O)CCc2cc(C(C)(C)C)c(O)c(C(C)(C)C)c2)(COC(=O)CCc2cc(C(C)(C)C)c(O)c(C(C)(C)C)c2)COC(=O)CCc2cc(C(C)(C)C)c(O)c(C(C)(C)C)c2)cc(C(C)(C)C)c1O [PTTC, Pentaerythritol tetrakis (3,5-di-tert-butyl-4-hydroxyhydrocinnamate), reference compound]

SMILES: O=C(C=Cc1ccc(O)c(O)c1)OC1CC(O)(C(=O)O)CC(O)C1O (stereo not shown) [neochlorogenic acid, 5-Caffeoylquinic acid]
inhibition of SVR cell proliferation (SVR cells): most potent inhibitory effects
inhibition at 100 µM [1]: 21%
inhibition of 26S proteasome activity in Jurkat cell extracts [2, 5]: ~30%
inhibition of 26S proteasome activity in Jurkat cell extracts [2, 6]: ~75%
arrest of Jurkat cells in G2/M phase (Jurkat T cells): no effects
increase of G2/M population (Jurkat T cells): no effects
